Results taken from US20230312587A1, “PTERIDINONE COMPOUNDS AND USES THEREOF” (Vertex Pharmaceutical Incorporated, priority 2018, published 2023).
pEC50, pIC50, pKi: −log10 of the molar value. Where two headings read alike, the source gives them in different places.

Key:
[1] = test system: β-catenin-TCF-mediated reporter transcription activity in Colo 205 cells; assay: Colo 205 reporter assay (TCF/LEF luciferase); type: cell-based; settings: Colo 205 TCF/LEF luciferase reporter, five hours after addition of compound, read-out: TCF reporter Colo205 IC50
Procedure, shortened: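 Luciferase signal from a TCF/LEF-driven reporter, stably integrated in Colo 205 colon cancer cells, was measured 5 h after compound addition.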

[2] = biological target: Plk1 (Homo sapiens (Human), UniProt P53350); assay: PLK1 inhibition assay (radioactive-phosphate incorporation); type: biochemical; settings: Ki(app), read-out: PLK1 - 33P.ENZ - CB 10 Ki
Description: Compounds were screened for their ability to inhibit Plk1 using a radioactive-phosphate incorporation assay. Assays were carried out in a mixture of 25 mM HEPES (pH 7.5), 10 mM MgCl2, 25 mM NaCl, and 2 mM DTT. Final substrate concentrations were 20 μM [γ-33P]ATP (35mCi 33P ATP/mmol ATP, Perkin Elmer/Sigma Chemicals) and 9 uM Sam68 protein. Assays were carried out at room temperature in the presence of 15 nM Plk1. An assay stock buffer solution was prepared containing all of the reagents listed above, with the exception of ATP and the test compound of interest. 0.75 μL of DMSO stock containing serial dilutions of the test compound (typically starting from a final concentration of 10 μM with 2-fold serial dilutions—final DMSO concentration 1.5%) was placed in a 384 well plate followed by addition of 25 μL [γ-33P]ATP (final concentration 20 μM). The reaction was initiated by addition of 25 μL of the assay stock buffer solution.
The reaction was stopped after 45 minutes by the addition of 25 μL 30% trichloroacetic acid (TCA) containing 10 mM cold ATP. The entire quenched reaction was transferred to a 384-well glass fiber filter plate (Millipore, Cat no. MZFBNOW50). The plate was washed with 3×5% TCA. After drying, 40 μL of Ultima Gold liquid scintillation cocktail (Perkin Elmer) was added to the well prior to scintillation counting in a PerkinElmer TopCount.
After removing mean background values for all of the data points, Ki(app) data were calculated from non-linear regression analysis of the initial rate data using the Prism software package (GraphPad Prism, GraphPad Software, San Diego California, USA).

[3] = biological target: HEK293 membranes over-expressing WFS-1 (Homo sapiens (Human), UniProt O76024); assay: Radioligand displacement assay (tritiated Compound 136 probe); type: binding; settings: displacement of tritiated Compound 136
Description: Cell pellets were re-suspended in 15 times packed cellular volume in 4° C. hypotonic lysis buffer (10 mM HEPES, pH 7.5 containing 1×Protease inhibitor, 0.5 mM EDTA and 2 mM DTT). Re-suspended cells were homogenized with 6-8 strokes in a dounce homogenizer kept on ice. Lysates were centrifuged at 500×G for 15 minutes at 4° C. without brake to decelerate rotor. Following centrifugation, remove the supernatant to a fresh tube and place on ice (Supernatant 1). Repeat the above steps on the lysed cell pellet using 0.5 the original volume of hypotonic lysis buffer and remove the 500× G supernatant (Supernatant 2) and combine with Supernatant 1. Transfer the combined supernatants to a 45-Ti ultracentrifuge tube and centrifuge at 100,000× G for 30 minutes. Following ultracentrifugation, carefully remove the supernatant and discard. Resuspend the 100,000× G pellet in cold resuspension buffer (10 mM HEPES, pH 7.5, 300 mM NaCl containing 1× Protease inhibitor, 1× EDTA and 2 mM DTT). Centrifuge sample at 500× G for 10 minutes with no brake and remove any cloudy, flocculent material. Resuspend pellet in resuspension buffer to approximately 2 mg/mL of protein concentration for use in radioligand binding assay and immunoblotting.
The binding affinities of compounds were determined by measuring the competitive displacement of a tritiated Compound 136 probe from purified HEK293 membranes over-expressing WFS-1. The data for the radioligand displacement assay are summarized in Table 47: A<0.06 μM; 0.06 μM≤B<0.6 μM; 0.6 μM≤C<3.0 μM; D≥3.0 μM.
The probe Kd was determined by titrating tritiated probe under the standard assay conditions plus and minus excess unlabeled probe and fitting the resulting data to a “One site—Total and nonspecific binding” model in Graphpad Prism, version 6.0, San Diego, CA, US. Initially, 0.25 μl of compound dissolved in DMSO at varying concentrations was dispensed to a 384 well plate. Membrane and probe were both prepared at 2× their final concentration in 1× assay buffer as described above. 25 μL of membrane was added to the wells and incubated for 10 minutes. 25 μL of diluted probe was then added to the wells. The assay was incubated for 90 minutes at room temperature. The entire assay volume was then transferred to Millipore GF/B 384-well plates pretreated with 15 μL 0.5% PEI. The filter plates were washed 3× with 75 μL 25 mM TRIS, ph7.5, 0.1% BSA and then dried overnight. Following addition of 45 μL UltimaGold scintillant, the samples were counted in a Perkin Elmer Topcount. The radioactivity remaining is a measure of bound probe. From the bound probe vs concentration of compound titration curve, the IC50 is determined by fitting the data to a standard 3 parameter IC50 model using either Graphpad Prism, version 6.0, San Diego, CA, US, or using GeneData Analyzer, Basel, Switzerland.

[4] = test system: HepG2 XBP1(u)-Luc cells; assay: HepG2 XBP1 reporter assay; type: cell-based; settings: 6 h
Description: HepG2 hepatoma cells were transduced with a retrovirus encoding the cDNA for unspliced (u) XBP1, which contains a non-processed intron, fused to the cDNA for firefly luciferase. Upon induction of ER stress, the non-processed intron of XBP1(u) is spliced out by active IRE1alpha endonuclease. The resulting spliced (s) XBP1 is now in frame with luciferase which causes the production of active luciferase protein, resulting in bioluminescence
HepG2 XBP1(u)-Luc cells were plated […] Cultured cells with a stably transfected reporter construct were plated at approximately 30,000 cells per well into 96 well multi-well plates for twenty four hours. The testing compounds were then added to the wells in 3-fold serial dilutions using a twenty seven micromolar top concentration. A series of control wells for each cell type received only compound solvent. Six hours after the addition of compound, reporter activity for luciferase was assayed, by addition of the SteadyGlo luminescence reagent (Promega). The reporter luminescence activity was measured using Pherastar plate reader (BMG Labtech). Readings was normalized to DMSO only treated cells, and normalized activities were then used in the IC50 calculations. The HepG2 XBP1 reporter assay data are summarized in Table 47: A<0.6 μM; 0.6 μM≤B<2.0 μM; 2.0 μM≤C<10.0 μM; D≥10.0 μM.

[5] = test system: Colo-205 cells; assay: Calcium flux assay (FLIPR Calcium 5); type: cell-based; settings: FLIPR Calcium 5, measured over 36 minutes
Description: Compounds described herein induced ER stress by causing intracellular calcium flux. Calcium flux was measured in Colo-205 cells using the FLTPR® Calcium 5 Assay Kit according to manufacter's protocol (Molecular Devices, Cat. #R8186) on a FLIPR3 system (Molecular Devices). Calcium flux is measured over 36 minutes. The Colo-205 calcium flux assay data are summarized in Table 47: A<0.6 μM; 0.6 μM≤B<2.0 μM; 2.0 μM≤C<10.0 μM; D≥10.0 μM.

[6] = test system: Colo205-TCF/LEF-Luciferase (Luc) tumor; assay: In vivo inhibition of TCF/LEF reporter activity in Colo-205 tumors; design: concentration or dose not given beside the values; settings: TCF/LEF luciferase reporter in Colo-205 tumors, nu/nu mice, oral gavage
Procedure, shortened: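 Female nu/nu mice carried subcutaneous Colo205-TCF/LEF-luciferase tumours (200–500 mm^3), n=4 per group. Compound was given by oral gavage in 1:3:5:1 EtOH:DMSO:PEG-400:H2O at 10 ml/kg, with vehicle as control. Luciferase activity in tumour lysates (Steady-Glo) was normalised to BCA protein.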

Plk1, sequence (P53350 whole entry, species assumed): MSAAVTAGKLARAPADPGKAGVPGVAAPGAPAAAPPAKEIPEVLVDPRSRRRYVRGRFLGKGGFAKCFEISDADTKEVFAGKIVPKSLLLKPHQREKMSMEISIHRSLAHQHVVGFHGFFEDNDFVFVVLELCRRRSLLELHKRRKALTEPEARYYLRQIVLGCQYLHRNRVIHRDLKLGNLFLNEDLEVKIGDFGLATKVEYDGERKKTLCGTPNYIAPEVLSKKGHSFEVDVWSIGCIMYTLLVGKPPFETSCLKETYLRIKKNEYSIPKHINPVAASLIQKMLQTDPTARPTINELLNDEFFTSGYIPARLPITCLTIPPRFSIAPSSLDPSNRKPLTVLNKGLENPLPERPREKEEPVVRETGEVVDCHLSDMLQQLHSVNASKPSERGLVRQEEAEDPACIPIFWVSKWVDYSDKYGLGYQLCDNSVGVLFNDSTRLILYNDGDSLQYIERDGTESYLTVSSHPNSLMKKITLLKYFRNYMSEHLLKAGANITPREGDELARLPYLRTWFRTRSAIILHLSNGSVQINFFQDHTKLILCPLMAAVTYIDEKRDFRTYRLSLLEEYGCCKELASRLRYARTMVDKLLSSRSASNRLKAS
HEK293 membranes over-expressing WFS-1, sequence (O76024 whole entry): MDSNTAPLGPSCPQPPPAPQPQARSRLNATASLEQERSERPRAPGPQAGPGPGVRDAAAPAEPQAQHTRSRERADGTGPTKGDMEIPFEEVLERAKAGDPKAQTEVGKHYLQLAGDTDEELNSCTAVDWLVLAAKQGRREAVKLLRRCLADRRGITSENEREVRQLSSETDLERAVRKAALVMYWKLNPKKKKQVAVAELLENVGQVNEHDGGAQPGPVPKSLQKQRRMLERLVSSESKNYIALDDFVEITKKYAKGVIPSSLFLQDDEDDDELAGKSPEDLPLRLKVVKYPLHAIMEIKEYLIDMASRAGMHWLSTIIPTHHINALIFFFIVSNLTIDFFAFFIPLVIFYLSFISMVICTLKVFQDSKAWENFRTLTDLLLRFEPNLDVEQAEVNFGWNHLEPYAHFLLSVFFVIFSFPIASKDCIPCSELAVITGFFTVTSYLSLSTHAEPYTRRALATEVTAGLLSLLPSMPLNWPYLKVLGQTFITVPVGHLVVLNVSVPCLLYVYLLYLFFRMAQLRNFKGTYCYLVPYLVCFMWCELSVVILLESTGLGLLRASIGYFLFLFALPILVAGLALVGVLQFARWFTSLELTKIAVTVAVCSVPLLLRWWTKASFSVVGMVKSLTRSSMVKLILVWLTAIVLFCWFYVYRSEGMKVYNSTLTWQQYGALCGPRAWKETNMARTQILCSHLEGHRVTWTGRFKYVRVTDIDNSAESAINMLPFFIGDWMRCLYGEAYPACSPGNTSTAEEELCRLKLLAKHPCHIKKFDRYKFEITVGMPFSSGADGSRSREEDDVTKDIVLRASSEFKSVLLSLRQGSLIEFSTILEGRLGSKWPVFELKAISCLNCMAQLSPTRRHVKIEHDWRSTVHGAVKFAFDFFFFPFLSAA

SMILES	pIC50 ([1]; Homo sapiens, COLO 205, 5 h)	pKi [2]	pIC50 [3]	further results
CN1C(=O)C(C)(C)N(C)c2nc(NCc3cnn(Cc4ccc(F)cc4)c3)ncc21 [Compound 224, 2-(((1-(4-fluorobenzyl)-1H-pyrazol-4-yl)methyl)amino)-5,7,7,8-tetramethyl-7,8-dihydropteridin-6(5H)-one]	> 6.52	< 5.40		
Cc1nc(NCc2cnn(Cc3cccc(C(F)(F)F)c3)c2)nc2c1NC(=O)[C@H](C)N2C [Compound 47, (7S)-4,7,8-trimethyl-2-(((1-(3-(trifluoromethyl)benzyl)-1H-pyrazol-4-yl)methyl)amino)-7,8-dihydropteridin-6(5H)-one]	> 6.52	< 5.40		
CC[C@H]1C(=O)N(C)c2cnc(NCc3cnn(Cc4cc(F)c(F)c(F)c4)c3)nc2N1C [Compound 15, (7S)-7-Ethyl-5,8-dimethyl-2-(((1-(3,4,5-trifluorobenzyl)-1H-pyrazol-4-yl)methyl)amino)-7,8-dihydropteridin-6(5H)-one]	> 6.52	< 5.40		
Cc1nc(NCc2cnn(Cc3ccc(F)cc3)c2)nc2c1NC(=O)C1(CC1)N2C [Compound 221, 2′-(((1-(4-fluorobenzyl)-1H-pyrazol-4-yl)methyl)amino)-4′,8′-dimethyl-5′,8′-dihydro-6′H-spiro[cyclopropane-1,7′-pteridin]-6′-one]	> 6.52	< 5.40		
Cc1nc(NCc2cnn(Cc3ccc(C(F)(F)F)o3)c2)nc2c1NC(=O)[C@H](C)N2C [Compound 192, (7S)-4,7,8-trimethyl-2-(((1-((5-(trifluoromethyl)furan-2-yl)methyl)-1H-pyrazol-4-yl)methyl)amino)-7,8-dihydropteridin-6(5H)-one]	> 6.52	< 5.40		
CC[C@@]1(C)C(=O)N(C)c2cnc(NCc3cnn(Cc4ccc(F)cc4)c3)nc2N1C [Compound 2, (7S)-7-ethyl-2-(((1-(4-fluorobenzyl)-1H-pyrazol-4-yl)methyl)amino)-5,7,8-trimethyl-7,8-dihydropteridin-6(5H)-one]		< 5.40		
Cc1nc(NCc2cnn(CC3CCC3)c2)nc2c1NC(=O)[C@H](C)N2C [Compound 5, (7S)-2-(((1-(cyclobutylmethyl)-1H-pyrazol-4-yl)methyl)amino)-4,7,8-trimethyl-7,8-dihydropteridin-6(5H)-one]	6.00 to 6.52	< 5.40		
Cc1nc(NCc2cnn(C3Cc4ccccc4C3)c2)nc2c1NC(=O)[C@H](C)N2C [Compound 116, (7S)-2-(((1-(2,3-dihydro-1H-inden-2-yl)-1H-pyrazol-4-yl)methyl)amino)-4,7,8-trimethyl-7,8-dihydropteridin-6(5H)-one]	> 6.52	< 5.40		
Cc1nc(N[C@H]2C[C@@H](Cn3nccc3C(F)(F)F)C2)nc2c1NC(=O)[C@H](C)N2C [Compound 275, (7S)-4,7,8-trimethyl-2-((cis-3-((5-(trifluoromethyl)-1H-pyrazol-1-yl)methyl)cyclobutyl)amino)-7,8-dihydropteridin-6(5H)-one]	> 6.52	< 5.40		
Cc1nc(N[C@H]2C[C@@H](COc3cnc(C(F)(F)F)nc3)C2)nc2c1NC(=O)[C@H](C(C)C)N2C [Compound 1417, (S)-7-isopropyl-4,8-dimethyl-2-(((1s,3R)-3-(((2-(trifluoromethyl)pyrimidin-5-yl)oxy)methyl)cyclobutyl)amino)-7,8-dihydropteridin-6(5H)-one]			6.22 to 7.22	pIC50 [4]: > 6.22; pIC50 [1]: > 6.52; pEC50 [5]: > 6.22
Cc1nc(N[C@H]2C[C@H](Oc3cc(F)c(F)cc3F)C2)nc2c1NC(=O)[C@H](C)N2C [Compound 292, (7S)-4,7,8-trimethyl-2-((trans 3-(2,4,5-trifluorophenoxy)cyclobutyl)amino)-7,8-dihydropteridin-6(5H)-one]	> 6.52		> 7.22	pIC50 ([4]; Homo sapiens): > 6.22; pEC50 ([5]; Homo sapiens, COLO 205, 0.6 h): > 6.22
Cc1nc(N[C@H]2C[C@@H](COc3ccc(C(F)(F)F)nc3)C2)nc2c1NC(=O)[C@H](C(C)C)N2C (relative stereo) [Compound 551, (S)-7-isopropyl-4,8-dimethyl-2-((cis-3-(((6-(trifluoromethyl)pyridin-3-yl)oxy)methyl)cyclobutyl)amino)-7,8-dihydropteridin-6(511)-one]			> 7.22	pIC50 [1]: > 6.52; Percent Remaining Activity at 8 hrs after Dosing [6]: 20%; pEC50 [5]: > 6.22
CC[C@H]1C(=O)Nc2c(C)nc(NCc3cnn(C4CC(F)(F)C4)c3)nc2N1C [Compound 795, (S)-2-(((1-(3,3-difluorocyclobutyl)-1H-pyrazol-4-yl)methyl)amino)-7-ethyl-4,8-dimethyl-7,8-dihydropteridin-6(5H)-one]	> 6.52		6.22 to 7.22	pIC50 ([4]; Homo sapiens): > 6.22; pEC50 ([5]; Homo sapiens, COLO 205, 0.6 h): > 6.22
